This passage reports IC50 results from ChEMBL document CHEMBL3879881, “Substituted pyrazolyl compounds for the treatment of inflammation” (2005).

Structures are written as SMILES.

This experiment has as its target T1, Inhibitor of nuclear factor kappa-B kinase subunit beta (Homo sapiens, UniProt O14920).
T1 sequence (O14920 whole entry): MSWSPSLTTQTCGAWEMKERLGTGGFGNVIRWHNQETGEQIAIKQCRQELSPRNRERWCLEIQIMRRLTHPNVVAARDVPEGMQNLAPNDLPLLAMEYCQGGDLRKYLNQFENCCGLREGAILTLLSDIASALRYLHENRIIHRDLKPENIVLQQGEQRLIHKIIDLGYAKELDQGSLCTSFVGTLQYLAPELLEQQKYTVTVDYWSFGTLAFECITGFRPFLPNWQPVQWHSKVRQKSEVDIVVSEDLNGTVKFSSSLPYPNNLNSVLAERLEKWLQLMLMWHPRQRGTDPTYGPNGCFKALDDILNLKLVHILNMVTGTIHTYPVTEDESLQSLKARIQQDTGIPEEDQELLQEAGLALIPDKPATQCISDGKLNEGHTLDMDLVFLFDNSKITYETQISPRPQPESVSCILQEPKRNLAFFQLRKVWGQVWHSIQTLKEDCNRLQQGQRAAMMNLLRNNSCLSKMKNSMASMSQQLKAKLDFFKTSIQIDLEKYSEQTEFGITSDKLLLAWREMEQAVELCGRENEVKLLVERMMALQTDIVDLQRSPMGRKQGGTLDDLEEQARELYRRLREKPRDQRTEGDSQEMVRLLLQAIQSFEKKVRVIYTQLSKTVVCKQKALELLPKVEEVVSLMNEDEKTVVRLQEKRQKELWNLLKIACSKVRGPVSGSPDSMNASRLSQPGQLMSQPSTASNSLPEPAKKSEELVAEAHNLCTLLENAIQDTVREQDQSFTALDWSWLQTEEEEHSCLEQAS
As to the kind of experiment: Inhibition of human recombinant C-terminal FLAG-epitope-tagged IKK2 expressed in baculovirus using biotinylated IkappaBalpha peptide as substrate assessed as decrease in [gamma-33P]-ATP incorporation in substrate after 30 mins by scintillation counting method.

The IC50 is the concentration that gives 50% inhibition. With `NC(=O)c1nn(-c2cccc(F)c2)c2c1CCc1ccc(NC(=O)c3cccc(Cl)c3Cl)cc1-2`, the IC50 is 1000 to 10000 nM.

On to `Cc1nnsc1C(=O)Nc1ccc2c(c1)-c1c(c(C(N)=O)nn1-c1ccc3c(c1)OCO3)CC2`, for which the IC50 was 1000 to 10000 nM. `CSc1ccc(-n2nc(C(N)=O)c3c2-c2cc(NC(=O)c4ccccc4Cl)ccc2CC3)cc1`: the IC50 lay within 1000 to 10000 nM. As for `CN(C)c1cccc2c(S(=O)(=O)Nc3ccc4c(c3)-c3c(c(C(N)=O)nn3-c3ccc(S(N)(=O)=O)cc3)CC4)cccc12`, the figure is 1000 to 10000 nM; as for `CCCS(=O)(=O)c1ccc(-n2nc(C(N)=O)c3c2-c2cc(NS(C)(=O)=O)ccc2CC3)cc1`, 1000 to 10000 nM. Then `Cc1ccccc1C(=O)Nc1ccc2c(c1)-c1c(c(C(N)=O)nn1-c1ccc(Br)cc1)CC2`, with no more than 1000 nM. Take `CCCS(=O)(=O)c1ccc(-n2nc(C(N)=O)c3c2-c2cc(NC(=O)c4cc(N)ccc4Cl)ccc2CC3)cc1`: the IC50 was no more than 1000 nM. As for `NC(=O)c1nn(-c2ccc(OC(F)(F)F)cc2)c2c1CCc1ccc(NC(=O)c3ccccc3Cl)cc1-2`, the figure is 1000 to 10000 nM. For the compound `CNCC(=O)Nc1ccc2c(c1)-c1c(c(C(N)=O)nn1-c1ccc3c(c1)OCO3)CC2`, the IC50 lay in the range of 1000 to 10000 nM. As for `COc1cccc(-n2nc(C(N)=O)c3c2-c2cc(NC(=O)c4ccccc4Cl)ccc2CC3)c1`, the figure is 1000 to 10000 nM. `NC(=O)c1nn(-c2ccc(-c3cccnc3)cc2)c2c1CCc1ccc(NC(=O)c3ccccc3Cl)cc1-2`: the IC50 fell in the range of 1000 to 10000 nM.

Consider `CS(=O)(=O)Nc1ccc2c(c1)-c1c(c(C(N)=O)nn1-c1cccc(O)c1)CC2`, for which the half-maximal inhibitory concentration (IC50) was in the range of 1000 to 10000 nM. Then `N#Cc1cc(C(=O)Nc2ccc3c(c2)-c2c(c(C(N)=O)nn2-c2ccc(F)cc2)CC3)c(Cl)cn1`, with no more than 1000 nM; and `NC(=O)c1nn(-c2ccc(S(N)(=O)=O)cc2)c2c1CCc1ccc(NC(=O)c3ccccc3Cl)cc1-2`, with no more than 1000 nM; and `NC(=O)c1nn(-c2ccc3c(c2)OCO3)c2c1CCc1ccc(NC(=O)c3cc[n+]([O-])cc3)cc1-2`, with 1000 to 10000 nM. Consider `CS(=O)(=O)c1ccc(-n2nc(C(N)=O)c3c2-c2cc(NC(=O)c4ccccc4N)ccc2CC3)cc1`, for which the IC50 was 1000 to 10000 nM. As for `Cc1ccn2c(C)c(C(=O)Nc3ccc4c(c3)-c3c(c(C(N)=O)nn3-c3ccc(S(C)(=O)=O)cc3)CC4)nc2c1`, the figure is 1000 to 10000 nM. Take `Cc1cc(Cl)ncc1C(=O)Nc1ccc2c(c1)-c1c(c(C(N)=O)nn1-c1ccc3c(c1)OCO3)CC2`: the IC50 was no more than 1000 nM. Then `NC(=O)c1nn(-c2ccc(S(N)(=O)=O)cc2)c2c1CCc1ccc([N+](=O)[O-])cc1-2`, with greater than 100000 nM; and `C[S+]([O-])c1ccc(-n2nc(C(N)=O)c3c2-c2cc(NC(=O)c4ccncc4Cl)ccc2CC3)cc1` (stereo not given), with no more than 1000 nM.

For the compound `NC(=O)c1nn(-c2ccc(S(N)(=O)=O)cc2)c2c1CCc1ccc(NC(=O)C3CCC3)cc1-2`, the 50% inhibitory concentration (IC50) was 1000 to 10000 nM. `NC(=O)c1nn(-c2ccc3c(c2)OCO3)c2c1CCc1ccc(NC(=O)c3nc(CN4CCOCC4)ccc3Cl)cc1-2`: the half-inhibitory concentration (IC50) is no more than 1000 nM. Then `CN1CCN(c2cc(C(=O)Nc3ccc4c(c3)-c3c(c(C(N)=O)nn3-c3ccc(S(C)(=O)=O)cc3)CC4)c(Cl)cn2)CC1`, with no more than 1000 nM; and `NC(=O)c1nn(-c2cc(F)cc(F)c2)c2c1CCc1ccc(NC(=O)c3cccc(Cl)c3Cl)cc1-2`, with 1000 to 10000 nM; and `NC(=O)c1nn(-c2ccc(S(N)(=O)=O)cc2)c2c1CCc1ccc(NS(=O)(=O)c3cccc4nonc34)cc1-2`, with 1000 to 10000 nM. For `CC(C)C(=O)Nc1ccc2c(c1)-c1c(c(C(N)=O)nn1-c1ccc(S(N)(=O)=O)cc1)CC2`, the IC50 lay within 1000 to 10000 nM. For the compound `C#Cc1ccc(-n2nc(C(N)=O)c3c2-c2cc(NC(=O)c4cccnc4Cl)ccc2CC3)cc1`, the half-maximal inhibitory concentration (IC50) fell in the range of 1000 to 10000 nM. As for `NC(=O)c1nn(-c2ccc(S(N)(=O)=O)cc2)c2c1CCc1ccc(NS(=O)(=O)c3cccc(Br)c3)cc1-2`, the figure is 1000 to 10000 nM; as for `NC(=O)c1nn(-c2ccc(F)cc2)c2c1CCc1ccc(NC(=O)c3cc(Cl)ncc3Cl)cc1-2`, no more than 1000 nM; as for `CS(=O)(=O)c1ccc(-n2nc(C(N)=O)c3c2-c2cc(N)ccc2CC3)cc1`, 1000 to 10000 nM.

On to `C[S+]([O-])c1ccc(-n2nc(C(N)=O)c3c2-c2cc(NS(C)(=O)=O)ccc2CC3)cc1` (stereo not given), for which the concentration for half-maximal inhibition (IC50) lay within 1000 to 10000 nM. Then `CS(=O)(=O)Nc1ccc2c(c1)-c1c(c(C(N)=O)nn1-c1ccc(F)cc1)CC2`, with 1000 to 10000 nM.

For the compound `CC(=O)Nc1ccc2c(c1)-c1c(c(C(N)=O)nn1-c1ccc(S(=O)(=O)N(C)C)cc1)CC2`, the half-inhibitory concentration (IC50) fell in the range of 1000 to 10000 nM. As for `NC(=O)c1nn(-c2ccc(S(N)(=O)=O)cc2)c2c1CCc1ccc(NS(=O)(=O)c3ccc(Br)cc3F)cc1-2`, the figure is 1000 to 10000 nM.

For `CS(=O)(=O)c1ccc(-n2nc(C(N)=O)c3c2-c2cc(NC(=O)c4cc(N=[N+]=[N-])ccc4[N+](=O)O)ccc2CC3)cc1`, the concentration for half-maximal inhibition (IC50) was no more than 1000 nM. `NC(=O)c1nn(-c2ccc(S(N)(=O)=O)cc2)c2c1CCc1ccc(NC(=O)Nc3ccccc3)cc1-2`: the concentration for half-maximal inhibition (IC50) fell in the range of 1000 to 10000 nM. Turning to `NC(=O)c1nn(-c2ccc(S(N)(=O)=O)cc2)c2c1CCc1ccc(NS(=O)(=O)c3ccc(F)c(F)c3)cc1-2`, the IC50 was 10000 to 100000 nM. Then `NC(=O)c1nn(-c2ccc(S(N)(=O)=O)cc2)c2c1CCc1ccc(NC(=O)C3CCCC3)cc1-2`, with 1000 to 10000 nM; and `CN1CCN(c2ncc(Cl)c(C(=O)Nc3ccc4c(c3)-c3c(c(C(N)=O)nn3-c3ccc5c(c3)OCO5)CC4)n2)CC1`, with no more than 1000 nM. Take `NC(=O)c1nn(-c2ccc(S(N)(=O)=O)cc2)c2c1CCc1ccc(NC(=O)c3ccccc3OC(F)(F)F)cc1-2`: the half-inhibitory concentration (IC50) was no more than 1000 nM.
